Holding throughout (assay type): cell-based
Data set [1] concerns store-operated Ca^2+ entry in PLP-B lymphocytes. The data set can be described thus: Store-operated Ca2+ entry after thapsigargin depletion of ER Ca2+ stores in PLP-B lymphocytes. To be noted: for inhibition at 10 µM / inhibition at 50 µM / inhibition at 100 µM / Effect on amplitude of SOCE peak / inhibition at 1 µM / inhibition at 0.1 µM: PLP-B lymphocytes, % of inhibition (−) or activation; for pIC50: SOCE in PLP-B lymphocytes, average of three assays, ±0.5 μM. As to the method: (§1) The effects of the molecules developed were tested on PLP-B lymphocytes. Store-operated Ca^2+ entry was induced by depletion of Endoplasmic Reticulum Ca^2+ stores (ER Ca^2+ stores) with thapsigargin (Tg) in a Ca^2+-free medium and measured following the addition of 1.8 mM of CaCl2) in the extracellular medium. The results are compared to the results obtained for known SOCE inhibitors SKF-96365, GSK-7975A, Synta 66.

The subject of data set [2] is store-operated Ca^2+ entry in HEK 293. The data set can be described thus: Store-operated Ca2+ entry in HEK 293 cell line. To be noted: % of inhibition (−) or activation. As to the method:
as §1
(§2) Then, effects of the molecule that gave the best results in this test (i.e., molecule 6αa) were assessed in two cancer cell lines, namely: HEK 293 and HEK 651 HS1 tumor cell lines.

In a further data set the test system is JOK cells. Put plainly: JOK cell viability and apoptosis assays (LIVE/DEAD, Annexin V-FITC/PI). To be noted: JOK B cells (FIG. 7); 5 or 20 μM; treated for 48 hours. As for the experimental part: Cell Viability Assays. JOK cells were treated with test compounds (GSK-7975-A, SKF-93365 and 6αa) or solvent for 48 hours. JOK cells viability was then assessed using LIVE/DEAD cell viability assays kit (Abcam). Differentially labeled live and dead cells with fluorescent dyes are analyzed by flow cytometry.
Apoptosis Assay. Apoptosis of JOK cells were determined by Annexin V-FITC/PI staining (Biolegend) using flow cytometry. The percentage of annexin V-FITC and propidium iodide-[…] cells were assessed using Kaluza 1.3.

For data set [3], the system named is store-operated Ca^2+ entry in HEK 651 HS1. Put plainly: Store-operated Ca2+ entry in HEK 651 HS1 cell line. As to conditions: for Effect on amplitude of SOCE peak: % of inhibition (−) or activation. As for the experimental part:
as §1, §2

For the next data set, the system named is PANC-1 cells. The data set can be described thus: PANC-1 cytotoxicity (Cell Tox green assay). As to conditions: 5 and 20 μM, 24 hours. As for the experimental part:
Analysis of Cell Proliferation. For PANC-1 cell proliferation and cell cytotoxicity measurements, […] were seeded in 96 well-plates in 100 μL of DMEM medium. Cells were incubated for 24 hours at 37° C. with 3 different SOCE inhibitors (GSK-7975-A, SKF-93365 and 6αa) at 2 different concentrations (5 and 20 μM) compared to DMSO and untreated cells. Cell proliferation was evaluated using the Cell Titer kit proliferation assay (Promega). Cytotoxicity was evaluated using the Cell Tox green cytotoxicity assay (Promega). All the kits were used following manufacturer recommendations and using a plate reader.

In a further data set the test system is SOCE in JOK B cells. Put plainly: Intracellular calcium levels / SOCE in JOK B cells (Fura-2AM, FlexStation 3). As for the experimental part: Intracellular calcium levels were monitored at 37° C. using the FlexStation 3™ (Molecular Devices, Berkshire, UK), a fluorescence plate reader measuring time-resolved intracellular Ca^2+ concentration in a 96-well format with cells loaded with the dual-wavelength fluorescent calcium-sensitive dye Fura-2AM.
Intracellular Ca^2+ stores were depleted with 2 μM Thapsigargin (an inhibitor of ER SERCA pumps) under Ca^2+-free conditions to determine the magnitude of intracellular Ca^2+ release. Next, the cells were returned to Ca^2+-containing Hepes-buffered solution to measure SOCE. The magnitude of SOCE was estimated as the maximal values of normalized fluorescence ratio following Ca^2+ re-addition.

The test system of another data set is HUVEC cells. The data set can be described thus: HUVEC cell death (Annexin/Propidium Iodide, flow cytometry). To be noted: HUVEC (FIG. 8); 5 or 20 μM; treated for 48 hours. As to the method:
FIG. 8. In vitro Effects of 6αa, GSK-7975-A and SKF-93365 on HUVEC Cell Death. […] Cell death was analyzed by flow cytometry following Annexin/Propidium Iodide labeling. Percentages of living cells, necrotic cells and apoptotic cells submitted to GSK-7975A (A), SKF-93365 (B), and 6αa (DAD 3-473) (C) treatment were normalized to the DMSO treatment conditions. Histograms present the amounts of apoptotic cells (annexin/PI positive cells) detected in each experimental condition after treatment with GSK-7975A (D), SKF-93365 (E), and 6αa (DAD 3-473) (F). Data are expressed as mean±SEM of n observations (n=2). Data are analyzed with non parametric Mann Withney analysis, *P<0.05, **P<0.01 and ***P<0.001.

Where [4] appears, read: Lymphocyte, 10 μM, DMSO control 100%, read-out: Effect on amplitude of SOCE Peak.
Setting [5] is: Lymphocyte, 10 μM, thapsigargin (Tg) peak, read-out: Effect on amplitude of Tg Peak.
Where [6] appears, read: Lymphocyte, 50 μM, DMSO control 100%, read-out: Effect on amplitude of SOCE Peak.
The mark [7] stands for this setting: Lymphocyte, 50 μM, thapsigargin (Tg) peak, read-out: Effect on amplitude of Tg Peak.
Setting [8] is: Lymphocyte, 100 μM, DMSO control 100%, read-out: Effect on amplitude of SOCE Peak.
Where [9] appears, read: Lymphocyte, 100 μM, thapsigargin (Tg) peak, read-out: Effect on amplitude of Tg Peak.
The mark [10] stands for this setting: Lymphocyte, 1 μM, DMSO control 100%, read-out: Effect on amplitude of SOCE Peak.

pIC50: −log10 of the molar value. Where a name gives a salt, the structure may show the parent alone. Read-outs that look alike come from different tables or passages of the source.

For `Oc1ccc(CCn2cnc3cc(F)ccc32)cc1` [12αd, 5-Fluoro-1-(4-hydroxyphenylethyl)-1H-benzo[d]imidazol hydrochloride], the inhibition at 10 µM was -2.7% in data set [1] (setting [4]) and -6% in data set [1] (setting [5]). Also, the inhibition at 50 µM was -3% in data set [1] (setting [6]) and -4.2% in data set [1] (setting [7]). Besides, the results for the inhibition at 100 µM in data set [1] (setting [8]) and in data set [1] (setting [9]) were 6.4% and -4.6%, respectively.

For the compound `Oc1ccc(CCn2ncc3ccccc32)cc1` [12αe, 1-(4-Hydroxyphenylethyl)-1H-indazole hydrochloride], the values for the inhibition at 10 µM in data set [1] (setting [4]) and in data set [1] (setting [5]) were 5% and 11%, respectively. The inhibition at 50 µM came out at 18% in data set [1] (setting [6]) and 29% in data set [1] (setting [7]). Moreover, the inhibition at 100 µM came out at 8% in data set [1] (setting [8]) and 28% in data set [1] (setting [9]).

For `Oc1ccc(CCn2cncn2)cc1` [12βa, 1-(4-Hydroxyphenylethyl)-1H-1,2,4-triazole hydrochloride], the inhibition at 10 µM in data set [1] (setting [4]) and in data set [1] (setting [5]) was 8% each time. For the same compound, the inhibition at 50 µM in data set [1] (setting [6]) worked out at 10%; in data set [1] (setting [7]) it was 14%. Besides, the inhibition at 100 µM was determined as 12% in data set [1] (setting [8]) and 8% in data set [1] (setting [9]).

For the compound `COc1ccc(CCCOc2ccc(CCn3cncn3)cc2)cc1` [Compound 6βf], the “Effect on amplitude of SOCE peak” value in data set [1] (100 μM, DMSO control 100%) was −10.0%. The inhibition at 10 µM in data set [1] (setting [5]) was determined as 13%. Further, the inhibition at 50 µM in data set [1] (setting [7]) stood at 18%.

Take `COc1ccc(CCCOc2ccc(CCn3cccn3)cc2)cc1` [Compound 6βp]: the inhibition at 1 µM in data set [1] (setting [10]) is -16%. The compound also gave a pIC50 in data set [1] (Lymphocyte) of 4.60.

For `COc1ccc(CCOc2ccc(CCn3ccc(C(F)(F)F)n3)cc2)cc1` [Compound 6βs], the inhibition at 10 µM in data set [1] (setting [4]) came out at 13%. Also, the inhibition at 50 µM is 34% in data set [1] (setting [6]) and 6% in data set [1] (setting [7]). The results for the inhibition at 100 µM in data set [1] (setting [8]) and in data set [1] (setting [9]) were 64% and 10%, respectively.

Take `COc1ccc(CCCOC(Cn2ccnc2)c2ccc(OC)cc2)cc1` (stereo not drawn) [SKF-96365]: the “Effect on amplitude of SOCE peak” value is −25% in data set [2] (0.1 μM); −21% in data set [2] (1 μM); −23% in data set [2] (5 μM); −4% in data set [2] (10 μM); −33% in data set [2] (50 μM); −8% in data set [3] (0.1 μM). Further, the “Effect on amplitude of SOCE peak” value is −6% in data set [3] (1 μM), −9% in data set [3] (5 μM), −17% in data set [3] (10 μM) and −63% in data set [3] (50 μM). Moreover, the “apoptosis or necrosis of cells” value in the data set with JOK cells and with HUVEC cells was “do not induce apoptosis or necrosis” throughout. Further, the pIC50 in data set [3] (average of three assays, ±0.5 μM) was 4.40; in data set [1] (Lymphocyte), 4.22. Besides, the “cytotoxicity in cancer PANC-1 cells” value with PANC-1 cells is “no cytotoxic effects”. In the data set on SOCE in JOK B cells, the “amplitude of Ca2+ release from the endoplasmic stores” value was “not found to be significantly affected”. For the same compound, the “amplitude of SOCE” value with SOCE in JOK B cells (5 and 20 μM, compared to control, irrespective of incubation time (5, 15, 30 minutes, 1 hour)) is on record as “significantly reduces”. The inhibition at 0.1 µM was 3.4% in data set [1] (Lymphocyte, DMSO control 100%, read-out: Effect on amplitude of SOCE Peak) and -2.4% in data set [1] (Lymphocyte, thapsigargin (Tg) peak, read-out: Effect on amplitude of Tg Peak). Further, the inhibition at 1 µM in data set [1] (setting [10]) is 26.4%; in data set [1] (Lymphocyte, 1 μM, thapsigargin (Tg) peak, read-out: Effect on amplitude of Tg Peak), -6.5%. The figures for the inhibition at 10 µM in data set [1] (setting [4]) and in data set [1] (setting [5]) were 15.4% and 6.6%, respectively. For the same compound, the inhibition at 50 µM in data set [1] (setting [6]) stood at 44.3%; in data set [1] (setting [7]), 11.1%. Besides, the figures for the inhibition at 100 µM in data set [1] (setting [8]) and in data set [1] (setting [9]) were 58.7% and 8%, respectively.

`COc1ccc(OC)c(-c2ccc(NC(=O)c3ccncc3F)cc2)c1` [Synta 66, reference compound]: the “Effect on amplitude of SOCE peak” value in data set [1] (1 μM, DMSO control 100%) was 9.0%; in data set [1] (10 μM, DMSO control 100%), 6.0%; in data set [1] (50 μM, DMSO control 100%) it was −74.0%; in data set [1] (100 μM, DMSO control 100%), −89.0%. The compound also gave a pIC50 in data set [1] of 5.06.

The values above are taken from patent US12686664B2, “SOCE inhibitors and therapeutic uses thereof” (Institut National de la Santé et de la Recherche Médicale …, priority 2020, dated 2026).
